Data reported in PMC7204524 (Tetrahedron, 2020).

Target: T1, T. brucei methionyl-tRNA synthetase (TbMetRS) (Trypanosoma brucei, UniProt Q38C91)
T1 sequence (Q38C91 1-773): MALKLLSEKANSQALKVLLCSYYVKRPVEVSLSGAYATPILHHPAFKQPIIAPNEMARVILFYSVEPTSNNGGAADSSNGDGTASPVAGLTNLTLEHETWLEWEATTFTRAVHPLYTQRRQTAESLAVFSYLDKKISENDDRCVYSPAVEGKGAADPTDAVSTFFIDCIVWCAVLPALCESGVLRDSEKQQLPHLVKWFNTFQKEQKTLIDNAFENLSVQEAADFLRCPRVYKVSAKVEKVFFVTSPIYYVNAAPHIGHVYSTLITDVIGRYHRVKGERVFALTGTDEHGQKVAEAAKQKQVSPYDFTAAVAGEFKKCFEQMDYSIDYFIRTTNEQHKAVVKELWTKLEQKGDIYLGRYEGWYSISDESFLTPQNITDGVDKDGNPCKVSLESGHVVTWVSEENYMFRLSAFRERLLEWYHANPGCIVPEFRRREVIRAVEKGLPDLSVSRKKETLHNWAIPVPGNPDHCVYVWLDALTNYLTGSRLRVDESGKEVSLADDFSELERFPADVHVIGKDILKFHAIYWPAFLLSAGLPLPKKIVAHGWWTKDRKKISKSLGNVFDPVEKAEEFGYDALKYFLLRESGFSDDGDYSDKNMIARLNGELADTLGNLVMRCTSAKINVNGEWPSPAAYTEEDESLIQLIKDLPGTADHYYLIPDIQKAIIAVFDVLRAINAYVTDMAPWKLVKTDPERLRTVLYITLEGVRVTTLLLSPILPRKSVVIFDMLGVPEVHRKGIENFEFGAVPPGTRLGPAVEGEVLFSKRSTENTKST
Experiment: colorimetric pyrophosphatase-coupled inhibition assay
Assay type: biochemical

Question: `C[C@@H](O)[C@@H]1C(=O)N(CCc2c[nH]c3ccccc23)CC[C@@H]1N(C)Cc1cc(Cl)cc(Cl)c1` (racemic) [14a, (3R,4S)-1-(2-(1H-Indol-3-yl)ethyl)-4-((3,5-dichlorobenzyl)(methyl)amino)-3-((R)-1-hydroxyethyl)piperidin-2-one] was tested. Which “%” value did it give?
Answer: The value was 15–30 % inhibition at 200 μM.
